Values of other authors, collected in patent publication US12054764B2, “High-throughput screens for exploring biological functions of microscale biological systems” (THE BROAD INSTITUTE, INC., priority 2017, dated 2024).
In brackets after ≈: the same amount, converted by molar mass.

Test system: E. coli
Settings: stated in the legend of FIG. 10 as the loading concentration in 2% ultra-low melt agarose droplets

## CC1(C)S[C@@H]2[C@H](NC(=O)[C@H](N)c3ccccc3)C(=O)N2[C@H]1C(=O)O [Ampicillin]
  minimum inhibitory concentration (MIC): 5 µg/mL (≈ 14.3 µM)
